# Data taken from patent publication US10967069B2, “Bio-orthogonal drug activation” (TAGWORKS PHARMACEUTICALS B.V., priority 2011, dated 2021).
# Read-outs that look alike come from different tables or passages of the source. Marks after values point to notes of the source that are not given here.
# Columns and labels:
# [1] = Reactivity of tetrazines towards trans-cyclooct-4-ene-1-ol (axial isomer), competition experiment; conditions: reference tetrazine 5; acetonitrile/water
# Experimental: A competition experiment was performed to determine the reactivity ratio of a specific tetrazine and 3-(5-acetamido-2-pyridyl)-6-(2-pyridyl)-1,2,4,5-tetrazine (5) (that was chosen as the reference tetrazine), in the inverse-electron demand Diels-Alder reaction with trans-cyclooct-4-ene-1-ol (“minor” isomer with OH in axial position, see: Whitham et al. J. Chem. Soc. (C), 1971, 883-896)).
# To acetonitrile (0.100 mL) was added 5 μL of a solution of the specific tetrazine in DMSO (25 mM) and 5 μL of a solution of the reference tetrazine in DMSO (25 mM). This mixture was diluted with water (0.9 mL), and the absolute amounts of both tetrazines was determined by HPLC-MS/PDA analysis. Subsequently, a solution of trans-cyclooct-4-ene-1-ol (axial isomer) in DMSO (25 μL 2.5 mM) was slowly added, and the mixture was stirred for 5 min. Again, the absolute amounts of both tetrazines was determined by HPLC-MS/PDA analysis, and conversions for both tetrazines was calculated. From these conversions, the reactivity ratio (R=k2,TCO/k2,Ref) of both tetrazines was calculated using the mathematical procedure from Ingold and Shaw (J. Chem. Soc., 1927, 2918-2926).
# [2] = as above; conditions: values marked *: 50:50 mixture of PBS and acetonitrile; reference tetrazine 5
# [3] = Hydrolytic stability tests of tetrazines (UV, decrease of absorption at 525 nm); assay type: physicochemical; conditions: PBS buffer, 20° C.
# From the text: This solution was filtered and, the decrease of the absorption band at 525 nm was monitored using UV spectroscopy.
# [4] = Second-order rate constant of trans-cyclooctene derivatives in inverse-electron demand Diels-Alder reaction (UV-visible spectroscopy); conditions: UV-visible spectroscopy in acetonitrile at 20° C.
# Experimental: The kinetics of the inverse-electron demand Diels-Alder reaction of a trans-cyclooctene derivative with 3-(5-acetamido-2-pyridyl)-6-(2-pyridyl)-1,2,4,5-tetrazine (5), performed in acetonitrile at 20° C., was determined using UV-visible spectroscopy. A cuvette was filled with acetonitrile (3 mL) and equilibrated at 20° C. 3-(5-Acetamido-2-pyridyl)-6-(2-pyridyl)-1,2,4,5-tetrazine (5, 2.50×10^−7 mol) was added, followed by the trans-cyclooctene derivative (2.50×10^−7 mol). The decay of the absorption at λ=540 nm was monitored, and from this curve the second-order rate constant, k2, was determined assuming second order rate kinetics.
# [5] = Reactivity of trans-cyclooctene derivatives, competition experiment; conditions: reference trans-cyclooct-4-ene-1-ol (axial isomer)
# Experimental: A competition experiment was performed to determine the reactivity ratio of a specific trans-cyclooctene derivative and trans-cyclooct-4-ene-1-ol (axial isomer) (that was chosen as the reference trans-cyclooctene), in the inverse-electron demand Diels-Alder reaction with bis(2-pyridyl)-1,2,4,5-tetrazine (2).
# This mixture was diluted with water (0.45 mL). Subsequently, a solution of bis(2-pyridyl)-1,2,4,5-tetrazine (2, 6.25×10^−8 mol) in a mixture of acetonitrile (0.05 mL) and water (0.45 mL) was slowly added while stirring vigorously. After addition, the mixture was stirred for an additional 5 min. The conversion of both trans-cyclooctene derivatives was determined by HPLC-MS/PDA analysis, and from these conversions, the reactivity ratio (R=k2,TCO/k2,Ref) of the specific trans-cyclooctene derivative was calculated using the mathematical procedure from Ingold and Shaw (J. Chem. Soc., 1927, 2918-2926).
# [6] = Stability of trans-cyclooctene derivatives in PBS (HPLC-MS); assay type: physicochemical; conditions: PBS buffer, 20° C., in the dark, estimation
# Experimental: 10 μL of a solution of the specific trans-cyclooctene derivative in dioxane (25 mM) was diluted with PBS buffer (3 mL), and this solution was stored at 20° C. in the dark. The fate of the TCO compound was monitored by HPLC-MS analysis, and an estimation of the half-life time was made.
# [7] = tested on: A431 squamous carcinoma cells; assay: Cell proliferation assay (MTT)
# Experimental: The cells were plated in 96-well plates (Nunc) at a 2500 cells/well density 24 hr prior to the experiment. Doxorubicin (Dox) and the prodrug minor-38 (1 mM in DMSO) and the tetrazine 7 (10 mM in PBS) were serially diluted in pre-warmed culture medium immediately before the experiment and added to the wells (200 μl final volume per well). The prodrug was either added alone or in combination with 10 μM or 1.5 mol eq. tetrazine 7 (with respect to the prodrug). After 72 hr incubation at 37° C., cell proliferation was assessed by an MTT assay. Briefly, methylthiazolyldiphenyltetrazolium bromide (MTT) was dissolved in PBS at 5 mg/ml, filtered through 0.22 μm and 25 μl was added to each well. After 120 min incubation at 37° C., the medium was gently aspirated. The formed formazan crystals were dissolved in 100 μl DMSO and the absorbance was measured with a plate reader (BMG Labtech) at 560 nm.
# [8] = Experimental: (§1) 3-(2-Pyridyl)-6-methyl-1,2,4,5-tetrazine (7, 4.33×10^−6 g; 2.50×10^−8 mol) was dissolved in PBS buffer (1 mL) (c=25 μM). Next, minor-(E)-cyclooct-2-en-1-yl doxorubicin carbamate (38, the isomer with the carbamate in the axial position; 1.74×10^−5 g; 2.50×10^−8 mol) was added. The solution was stirred at 20° C. for 4 hr.
# as §1, with “Next, major-(E)-cyclooct-2-en-1-yl” for “Next, minor-(E)-cyclooct-2-en-1-yl”, “the equatorial” for “the axial”, “for 16” for “for 4”
# 3,6-Bis(2-aminophenyl)-1,2,4,5-tetrazine (9, 2.64×10^−6 g; 1.00×10^−8 mol) was dissolved in acetonitrile (0.1 mL). This mixture was diluted with PBS buffer (0.9 mL). Next, minor-(E)-cyclooct-2-en-1-yl doxorubicin carbamate (38; 6.96×10^−6 g; 1.00×10^−8 mol) was added.
# [9] = Activation of model prodrugs: reaction with 1,2,4,5-tetrazines and elimination of the model drug (HPLC-MS); conditions: for release of 3,5-dimethylaniline: 20 hr
# [10] = with tetrazine 7, c=25 μM, PBS, 20° C., 16 hr
structure (smiles),measurement,setting,value
c1ccc(-c2nnc(-c3ccccn3)nn2)nc1,"Reactivity ratio (R = k2,TZ/k2,Ref)",[1],1.17
Nc1ccc(-c2nnc(-c3ccccn3)nn2)nc1,"Reactivity ratio (R = k2,TZ/k2,Ref)",[1],0.4
CC(=O)Nc1ccc(-c2nnc(-c3ccccn3)nn2)nc1,"Reactivity ratio (R = k2,TZ/k2,Ref)",[1],1
O=C1CCCC(=O)N1c1ccc(-c2nnc(-c3ccccn3)nn2)nc1,"Reactivity ratio (R = k2,TZ/k2,Ref)",[1],1.6
c1cc(-c2nnc(-c3ccsc3)nn2)cs1,"Reactivity ratio (R = k2,TZ/k2,Ref)",[2],<0.01*
Fc1ccc(-c2nnc(-c3ccc(F)cn3)nn2)nc1,"Reactivity ratio (R = k2,TZ/k2,Ref)",[1],1.07
FC(F)(F)c1ccc(-c2nnc(-c3ccc(C(F)(F)F)cn3)nn2)nc1,"Reactivity ratio (R = k2,TZ/k2,Ref)",[2],5.3*
CCCC(=O)Nc1ccc(-c2nnc(-c3ccc(C(F)(F)F)cn3)nn2)nc1,"Reactivity ratio (R = k2,TZ/k2,Ref)",[2],1.84*
CCCC(=O)Nc1ccc(-c2nnc(-c3ncccn3)nn2)nc1,"Reactivity ratio (R = k2,TZ/k2,Ref)",[1],2.7
CCCC(=O)Nc1ccc(-c2nnc(-c3ccc(F)cn3)nn2)nc1,"Reactivity ratio (R = k2,TZ/k2,Ref)",[1],0.95
c1cnc(-c2nnc(-c3cnccn3)nn2)cn1,"Reactivity ratio (R = k2,TZ/k2,Ref)",[1],1.5
c1cncc(-c2nnc(-c3cccnc3)nn2)c1,"Reactivity ratio (R = k2,TZ/k2,Ref)",[1],0.19
c1cc(-c2nnc(-c3ccncc3)nn2)ccn1,"Reactivity ratio (R = k2,TZ/k2,Ref)",[1],0.83
c1csc(-c2nnc(-c3cccs3)nn2)c1,"Reactivity ratio (R = k2,TZ/k2,Ref)",[2],<0.01*
NCc1ccc(-c2nncnn2)cc1,"Reactivity ratio (R = k2,TZ/k2,Ref)",[1],0.77
Nc1ccc(-c2nnc(-c3ccccc3)nn2)cc1,"Reactivity ratio (R = k2,TZ/k2,Ref)",[2],<0.01*
Nc1cccc(-c2nnc(-c3ccccc3)nn2)c1,"Reactivity ratio (R = k2,TZ/k2,Ref)",[2],<0.01*
CCCNC(=O)c1ccc(-c2nnc(-c3ccccn3)nn2)nc1,"Reactivity ratio (R = k2,TZ/k2,Ref)",[1],1.76
c1ccc(-c2nnc(-c3ccccc3)nn2)cc1,"Reactivity ratio (R = k2,TZ/k2,Ref)",[2],<0.01*
c1ccc(-c2nncnn2)nc1,"Reactivity ratio (R = k2,TZ/k2,Ref)",[1],3.06
CCCC(=O)Nc1ccc(-c2nncnn2)nc1,"Reactivity ratio (R = k2,TZ/k2,Ref)",[1],2.8
CCCC(=O)Nc1ccc(-c2nnc(C)nn2)nc1,"Reactivity ratio (R = k2,TZ/k2,Ref)",[1],0.18
CCCCNC(=O)c1ccc(-c2nnc(-c3ncccn3)nn2)nc1,"Reactivity ratio (R = k2,TZ/k2,Ref)",[1],2
same,half-life at 83 µM,[3],25.2 min
c1c[nH]c(-c2nnc(-c3ccc[nH]3)nn2)c1,"Reactivity ratio (R = k2,TZ/k2,Ref)",[2],<0.01*
c1c[nH]c(-c2nnc(-c3ncc[nH]3)nn2)n1,"Reactivity ratio (R = k2,TZ/k2,Ref)",[1],1.2
Nc1ccccc1-c1nnc(-c2ccccc2N)nn1,"Reactivity ratio (R = k2,TZ/k2,Ref)",[2],<0.01*
Oc1ccc(-c2nnc(-c3ccc(O)cc3)nn2)cc1,"Reactivity ratio (R = k2,TZ/k2,Ref)",[2],<0.01*
Nc1ccc(-c2nnc(-c3ccc(N)cc3)nn2)cc1,"Reactivity ratio (R = k2,TZ/k2,Ref)",[2],<0.01*
OC1CC/C=C/CCC1 (stereo not drawn),rate contant k2,[4],577 M⁻¹ s⁻¹
same,"reactivity ratio (R = k2,TC0/k2,Ref)",[5],1
COc1cccc2c1C(=O)c1c(O)c3c(c(O)c1C2=O)C[C@@](O)(C(=O)CO)CC3OC1CC(NC(=O)OC2/C=C/CCCCC2)[C@H](O)C(C)O1 (stereo partly drawn),half-life at 83 µM,[6],> 20 days
"COc1cccc2c1C(=O)c1c(O)c3c(c(O)c1C2=O)C[C@@](O)(C(=O)CO)C[C@@H]3O[C@H]1C[C@H](N)[C@H](O)[C@H](C)O1 [Dox, Doxorubicin, reference compound]",IC50,"[7]; Homo sapiens, A-431, 72 h",20 ± 2 nM
"Cc1nnc(-c2ccccn2)nn1 [Tetrazine 7, 3-(2-pyridyl)-6-methyl-1,2,4,5-tetrazine]",IC50,"[7]; Homo sapiens, A-431, 72 h",> 100000 nM
Cc1nnc(-c2ccccn2)nn1 [drawing 93],"Reactivity ratio (R = k2,TZ/k2,Ref)",[1],0.25
O=C(NCc1ccccc1)OC1/C=C/CCCCC1 (stereo not drawn) [drawing 103],rate contant k2,[4],0.26 M⁻¹ s⁻¹
O=C(NCc1ccccc1)OC1/C=C/CCCCC1 (stereo not drawn) [drawing 104],rate contant k2,[4],40 M⁻¹ s⁻¹
same,"reactivity ratio (R = k2,TC0/k2,Ref)",[5],0.067
Cc1cc(C)cc(NC(=O)OC2/C=C/CCCCC2)c1 (stereo not drawn) [drawing 105],rate contant k2,[4],25.7 M⁻¹ s⁻¹
Cc1cc(C)cc(NC(=O)OC2/C=C/CCCCC2)c1 (stereo not drawn) [drawing 106],rate contant k2,[4],0.15 M⁻¹ s⁻¹
"COc1cccc2c1C(=O)c1c(O)c3c(c(O)c1C2=O)C[C@@](O)(C(=O)CO)C[C@@H]3O[C@H]1C[C@H](NC(=O)OC2/C=C/CCCCC2)[C@H](O)[C@H](C)O1 (stereo partly drawn) [major-38, major-(E)-cyclooct-2-en-1-yl doxorubicin carbamate]",conversion of the DA-reaction,[8]; [10],40%
same,release of doxorubicin (yield),[8]; [10],20%
"O=C(NCc1ccccc1)OC1/C=C/CCCCC1 (stereo not drawn) [minor-32, (E)-cyclooct-2-en-1-yl benzylcarbamate]",release of benzylamine,"[9]; with 3,6-Bis(2-aminophenyl)-1,2,4,5-tetrazine (9), DMSO-d6/D2O, 20° C., 24 hr",release of benzylamine
same,release of benzylamine,"[9]; with 3,6-Bis(2-pyridinyl)-1,2,4,5-tetrazine (2), acetonitrile/water, 20° C., 24 hr",release of benzylamine
same,release of benzylamine,"[9]; with 3,6-Bis(4-hydroxyphenyl)-1,2,4,5-tetrazine (11), acetonitrile/water, 20° C., 5 hr",release of benzylamine
same,release of benzylamine,"[9]; with 3,6-Diphenyl-1,2,4,5-tetrazine, general procedure",release of benzylamine
same,release of benzylamine,"[9]; with 6-H-3-(4-Aminomethylphenyl)-1,2,4,5-tetrazine, general procedure",release of benzylamine
same,release of benzylamine,"[9]; with 6-Methyl-3-(4-butanamido-2-pyridinyl)-1,2,4,5-tetrazine, general procedure",release of benzylamine
same,release of benzylamine,"[9]; with 6-Phenyl-3-(3-aminophenyl)-1,2,4,5-tetrazine, general procedure",release of benzylamine
same,release of benzylamine,"[9]; with 6-Phenyl-3-(4-aminophenyl)-1,2,4,5-tetrazine, general procedure",release of benzylamine
"Cc1cc(C)cc(NC(=O)OC2/C=C/CCCCC2)c1 (stereo not drawn) [minor-33, (E)-cyclooct-2-en-1-yl (3,5-dimethylphenyl)carbamate]","release of 3,5-dimethylaniline","[9]; with 3,6-Bis(2-aminophenyl)-1,2,4,5-tetrazine (9), acetonitrile/PBS, 20° C.","release of 3,5-dimethylaniline"
same,"release of 3,5-dimethylaniline","[9]; with 3,6-Bis(4-hydroxyphenyl)-1,2,4,5-tetrazine (11), acetonitrile/PBS, 20° C.","release of 3,5-dimethylaniline"
same,"release of 3,5-dimethylaniline","[9]; with 3,6-Diphenyl-1,2,4,5-tetrazine, acetonitrile/PBS, 20° C.","release of 3,5-dimethylaniline"
same,"release of 3,5-dimethylaniline","[9]; with 3-(2-Pyridyl)-6-methyl-1,2,4,5-tetrazine (7), PBS, 20° C.","release of 3,5-dimethylaniline"
"COc1cccc2c1C(=O)c1c(O)c3c(c(O)c1C2=O)C[C@@](O)(C(=O)CO)C[C@@H]3O[C@H]1C[C@H](NC(=O)OC2/C=C/CCCCC2)[C@H](O)[C@H](C)O1 (stereo partly drawn) [minor-38, minor-(E)-cyclooct-2-en-1-yl doxorubicin carbamate]",IC50,"[7]; A431, 72 hr, + tetrazine 7 (10 μM), constant amount",278 ± 22 nM
same,IC50,"[7]; A431, 72 hr, + tetrazine 7 (1.5 eq.), serial dilutions",137 ± 12 nM
same,IC50,"[7]; A431 cell line, 72 hr, MTT, compound alone",3020 ± 486 nM
same,release of doxorubicin (yield),"[8]; with tetrazine 7, c=25 μM, PBS, 20° C., 4 hr",69%
same,release of doxorubicin at lower concentrations,"[8]; with tetrazine 7, concentrations of 2.5 and 1.0 μM",Comparable results
same,release of doxorubicin (yield),"[8]; with tetrazine 9, acetonitrile/PBS, 20° C., 18 hr",90%
